Entries after “also recorded” stand apart in the source; their conditions may differ.
Key:
[1] = test system: IL-2 expression in primary mouse CD4+ T cells (mammalian calcineurin); conditions: previous studies; cited from earlier work
[2] = in vivo; cited from earlier work
[3] = test system: C. neoformans H99; assay: Intranasal model of pulmonary cryptococcosis, lung fungal burden (Example 1); format: in vivo, Cryptococcus neoformans in A/J mice; conditions: day 14; JH-FK-05 60 mg/kg, fluconazole 12 mg/kg, i.p. daily
Protocol: First, in the intranasal model, animals were anesthetized and infected with 10^5 cells of wild-type H99 C. neoformans via instillation in the animal's nares. These animals were monitored for 14 days and then sacrificed. This model tests the efficacy of JH-FK-05 to treat a pulmonary infection, which is the most common manifestation of early-stage cryptococcosis in patients. […] In both models, animals were treated once daily via i.p. injection beginning 3 h after infection with either vehicle, 60 mg/kg JH-FK-05, 12 mg/kg fluconazole, or a combination of the two monotherapies.
Wild-type H99 C. neoformans cells were grown overnight at 30° C. in a roller drum in yeast extract-peptone-dextrose (YPD) medium. […] H99 cells were counted with a hemacytometer and diluted to 2×10^6 cells/mL in PBS for the pulmonary model and 2×10^5 cells/mL in PBS for the disseminated model.
Female A/J mice (3 to 4 weeks old; Jackson Laboratory) were anesthetized utilizing an isoflurane chamber. […] After 14 days, animals were either sacrificed for fungal burden analysis or monitored for health and survival until reaching a humane endpoint.
Mice were euthanized by CO2 inhalation at the predetermined experimental endpoint. […] A 100-μL aliquot of each dilution was plated on antibiotic plates (YPD, 50 μg/mL ampicillin, and 30 g/mL chloramphenicol), incubated for 48 to 72 h at 30° C., and assessed for CFU. […]

[4] = test system: Aspergillus fumigatus (akuBKu80 hFKBP12); assay: MIC/MEC against humanized A. fumigatus strain; format: cell-based
Protocol: To confirm that JH-FK-05 was fungal FKBP12-dependent, a humanized A. fumigatus strain (the akuB^Ku80 hFKBP12 strain) expressing a codon-optimized human FKBP12 gene from the Affkbp12 native locus was utilized.
In vitro antifungal activities of FK506, FK520, and analogs were assessed in RPMI 1640 (Sigma-Aldrich) for all strains tested. MICs/minimum effective concentrations (MECs) for each drug were measured using modified Clinical and Laboratory Standards Institute (CLSI) M38-A2 and M27-A3 standard in vitro antifungal susceptibility protocols. Broth microdilution assays for MIC/MEC assessment were performed as described previously (see, Juvvadi P R, et al., 2019, Nat Commun 10:4275). All antifungal assays with C. neoformans were performed at 37° C. Antifungal susceptibility testing for C. albicans was performed in the presence of a uniform 1 μg/mL concentration of fluconazole to sensitize the organism to calcineurin inhibition.

[5] = In vivo tolerability of JH-FK-05; design: species or system mouse; conditions: daily i.p., up to 60 mg/kg
Protocol: Based on the in vitro evidence of reduced immunosuppressive activity of JH-FK-05, it was hypothesized that this reduction would translate into reduced immunosuppression in an in vivo model. The murine model for immunosuppression measures the T cell-dependent proliferation of two immune cell subtypes in response to immunization with an antigen. Animals were treated daily via intraperitoneal (i.p.) injection with vehicle, 5 mg/kg FK506, or 60 mg/kg JH-FK-05, beginning on day −1 and ending on day 7. […] On day 0, animals were immunized with NP-OVA to stimulate T cell-dependent signaling that would result in proliferation of T follicular helper (Tfh) cells and germinal center (GC) B cells. Animals were sacrificed on day 7, and the proportions of Tfh and GC B cells in the lymph nodes were measured. […]
Groups of 6 female C57BL/6 mice (Jackson Laboratory) were treated daily by intraperitoneal (i.p.) injection with about 100 μL vehicle, 5 mg/kg FK506, or 60 mg/kg JH-FK-05 beginning on day −1. […] Mice were treated and monitored daily until they were sacrificed on day 7. Draining lymph nodes were harvested on day 7, and the populations of T follicular helper cells and GC B cells were analyzed by flow cytometry. Tfh and GC B cells were measured from T Cell Receptor β (TCRβ^+) CD4^+CD44^hi cells and TCRβ^−CD19^+ cells, respectively.

[6] = test system: C. neoformans H99; assay: Survival in intranasal cryptococcosis model (Example 1); format: in vivo, Cryptococcus neoformans in A/J mice; conditions: 14 days treatment; JH-FK-05 60 mg/kg, fluconazole 12 mg/kg, i.p. daily
Protocol: To verify if this reduction seen in the fungal burdens of JH-FK-05 and combination-treated animals could translate into a meaningful therapeutic effect, the survival of animals infected via the intranasal route was assessed (FIG. 8A). As in the fungal burden model, these animals received daily treatment for only 14 days. Following the termination of treatment, animals were monitored for signs of decline, lethargy, and ultimately, moribundity. Untreated animals in this model typically survive for about 3 weeks, and similar results were observed here (vehicle treatment median survival, 22 days). Corroborating the results of the fungal burden study, a significant extension of survival for both JH-FK-05 (median survival, 26 days) and fluconazole (median survival, 25 days) was observed.
Female A/J mice (3 to 4 weeks old; Jackson Laboratory) were anesthetized utilizing an isoflurane chamber. While anesthetized, […] of 2×10^6 cells/mL suspension was dripped onto the nares of mice, allowing them to inhale the full inoculum. Treatment began 3 h following infection with i.p. dosing of vehicle, 60 mg/kg JH-FK-05, 12 mg/kg fluconazole, or combination. […] After 14 days, animals were either sacrificed for fungal burden analysis or monitored for health and survival until reaching a humane endpoint. […] Statistical significance was determined using log-rank (Mantel-Cox) tests.

[7] = test system: C. neoformans strain H99; assay: Survival during cryptococcal infection (Example 3); format: in vivo, Cryptococcus neoformans in A/J mice
Protocol: Finally, whether the antifungal efficacy translates into extended survival during infection was assessed. To test the impact of treatment on survival, murine survival was monitored in the cryptococcosis infection model. Following the same protocol of infection and dosing as in the fungal burden experiment, animal survival was monitored following infection and 2 weeks of intraperitoneal dosing. Fluconazole treatment extended median survival from 16 to 27 days.
C. neoformans inoculum was prepared by growing a 5-mL overnight YPD culture spinning in a tissue culture roller drum at 30° C. Cells were pelleted by centrifugation and washed in sterile PBS three times. Cell density was determined by hemocytometer, and cells were diluted to 2×10^6 cells/mL. Mice (10 to 20 g) were infected with 10^5 cells of C. neoformans H99. For inhalation infection, animals were anesthetized with isoflurane before 50 μL of inoculum was pipetted onto the upright nasal passages of each animal. Following inhalation of the inoculum, animals were monitored for post anesthesia recovery. Treatment of animals began 4 hours post infection and was continued for 14 days. Fungal burden was assessed 24 h after the final dose.
For survival curve analysis, animals were monitored until reaching defined humane end points, including social isolation, hunched posture, weight loss, lack of grooming, and labored breathing, and were then euthanized via CO2 inhalation. For fungal burden analysis, mice were euthanized following 2 weeks of treatment with a designated antifungal, vehicle, or combination. Brain, lung, and spleen were harvested from animals, weighed, and homogenized in sterile PBS using steel beads and a bead beater. Each organ homogenate was serially diluted 10-fold to 10-4 in PBS. One hundred microliters of each dilution was plated on YPD plates supplemented with YPD 50 μg/mL ampicillin and 30 μg/mL chloramphenicol, incubated at 30° C. for 2 days, and assessed for colony-forming units. CFU per organ weight was calculated and plotted using GraphPad Prism 9.

SMILES: C=CCC1C=C(C)CC(C)CC(OC)C2OC(O)(C(=O)C(=O)N3CCCCC3C(=O)OC(C(C)=CC3CCC(O)C(OC)C3)C(C)C(O)CC1=O)C(C)CC2OC (stereo not shown) [FK506, reference compound]
- effect on T cells [1]: cytotoxic and reduce the proliferation of T cells
- blood brain barrier crossing [2]: known to cross the blood brain barrier

SMILES: CC[C@@H]1/C=C(\C)C[C@H](C)C[C@H](OC)[C@H]2O[C@@](O)(C(=O)C(=O)N3CCCC[C@H]3C(=O)O[C@H](/C(C)=C/[C@@H]3CC[C@@H](O)[C@H](OC)C3)[C@H](C)[C@@H](O)C/C1=N/NC(C)=O)[C@H](C)C[C@@H]2OC [JH-FK-05]
- reduction of lung fungal burden [3]: ~10 fold
- antifungal activity against hFKBP12-expressing A. fumigatus strain [4]: no detectable antifungal activity
- MIC/MEC ([4]; strain akuBKu80 hFKBP12): >8 µg/mL
- tolerability [5]: tolerated at a dose as high as 60 mg/kg; also recorded: well tolerated by animals throughout the course of treatment; also recorded: animals tolerated JH-FK-05 treatment for the full treatment period
- median survival [6]: 26 days

SMILES: CC[C@@H]1/C=C(\C)C[C@H](C)C[C@H](OC)[C@H]2O[C@@](O)(C(=O)C(=O)N3CCCC[C@H]3C(=O)O[C@H](/C(C)=C/C3CC[C@@H](O)[C@H](OC)C3)[C@H](C)[C@@H](O)C/C1=N/NC(=O)OC)[C@H](C)C[C@@H]2OC (stereo partly shown) [JH-FK-08]
- survival compared to vehicle/untreated ([7]; 2 weeks twice daily i.p. 40 mg/kg, 40 mg/kg): more than doubled median survival; also recorded: more than double murine survival time
- median survival ([7]; 2 weeks twice daily i.p., fluconazole 6 mg/kg, JH-FK-08 40 mg/kg, vehicle 16 days): 33 days
- combination effect with fluconazole ([7]; in vivo): additive activity in combination with fluconazole in vivo
